In patent publication US20250353848A1, “HETEROCYCLIC PAD4 INHIBITORS” (Celgene Corporation, priority 2022, published 2025):

Assays:
[1] = molecular target: T1, hPAD4 enzyme (Homo sapiens, UniProt Q9UM07); test: RFMS Assay 2 (rapid-fire mass spectrum PAD4 inhibition assay, peptide substrate); type: biochemical; details: 35 nM recombinant human PAD4, substrate TSTGGRQGSHH, room temperature for 30 minutes; read-out: human PAD4 (hPAD4) IC50, RFMS Assay 2
Procedure: Stock compounds were dissolved and stored in 100% DMSO. Compound solutions were prepared via serial dilution at 3-fold intervals in DMSO with top compound concentration at […] in each assay. 0.25 μl of compound solution was transferred from the compound plate to the assay plate by using an acoustic dispenser. Final assay conditions: • Total reaction volume: 25 μl • Assay buffer: […] pH 7.4, 200 mM NaCl, 2 mM CaCl2, 5 mM DTT • 35 nM recombinant human PAD4 • 500 µM TSTGGRQGSHH (SEQ ID NO: 1) • 1.2% DMSO • Stop solution: 10% formic acid
Reaction mixtures were incubated at room temperature for 30 minutes. 10 μl each of the reaction mixtures was then mixed with 40 μl of 10% formic acid in a microtiter plate. The plate was frozen at −80° C. before shipping out on dry ice for RapidFire mass spectroscopy analysis.
Thawed samples were loaded onto the Rapid Fire 300 system (Agilent) wherein they were first sipped for 250 ms and then loaded onto a Agilent “C” (C18) cartridge using a mobile phase of water containing 0.09% formic acid/0.01% trifluoroacetic acid for 3000 ms desalting flowing at a rate of 1.5 ml/min. Once the samples were loaded and washed, a mobile phase of acetonitrile containing 0.09% formic acid/0.01% trifluoroacetic acid was used to elute the samples directly onto a Sciex API4000 triple quadrupole mass spectrometer for 3000 ms at a flow rate of 1.25 ml/min.
MRM transitions for substrate and product were monitored in positive ESI mode at m/z=562.3/969.7 and m/z=562.8/541.3 respectively. The dwell time for each transition was set at 100 ms, and the ESI voltage was used at 5500 with a source temperature of 650° C. Extracted ion peaks for each transition were integrated using the Rapid Fire Integrator software.

[2] = molecular target: T1, hPAD4 enzyme; test: RFMS Assay 1 (rapid-fire mass spectrum PAD4 inhibition assay, BAEE substrate); type: biochemical; details: 5 nM hPAD4 enzyme, 250 μM BAEE, 30 mins compound and enzyme preincubation at 37° C., 90 min enzyme/substrate reaction
Summary of the method: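 Human PAD4 (5 nM) preincubated 30 min at 37 °C with compound (top 50 μM, 0.5% DMSO), then 250 μM BAEE for 90 min at 37 °C in pH 7.5 HEPES with 50 μM calcium, 5 μM TPEN, 1 mM DTT. Product derivatized with phenyl glyoxal; citrulline product quantified by RapidFire MS/MS MRM, normalized to internal standard.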

T1 sequence (Q9UM07 whole entry): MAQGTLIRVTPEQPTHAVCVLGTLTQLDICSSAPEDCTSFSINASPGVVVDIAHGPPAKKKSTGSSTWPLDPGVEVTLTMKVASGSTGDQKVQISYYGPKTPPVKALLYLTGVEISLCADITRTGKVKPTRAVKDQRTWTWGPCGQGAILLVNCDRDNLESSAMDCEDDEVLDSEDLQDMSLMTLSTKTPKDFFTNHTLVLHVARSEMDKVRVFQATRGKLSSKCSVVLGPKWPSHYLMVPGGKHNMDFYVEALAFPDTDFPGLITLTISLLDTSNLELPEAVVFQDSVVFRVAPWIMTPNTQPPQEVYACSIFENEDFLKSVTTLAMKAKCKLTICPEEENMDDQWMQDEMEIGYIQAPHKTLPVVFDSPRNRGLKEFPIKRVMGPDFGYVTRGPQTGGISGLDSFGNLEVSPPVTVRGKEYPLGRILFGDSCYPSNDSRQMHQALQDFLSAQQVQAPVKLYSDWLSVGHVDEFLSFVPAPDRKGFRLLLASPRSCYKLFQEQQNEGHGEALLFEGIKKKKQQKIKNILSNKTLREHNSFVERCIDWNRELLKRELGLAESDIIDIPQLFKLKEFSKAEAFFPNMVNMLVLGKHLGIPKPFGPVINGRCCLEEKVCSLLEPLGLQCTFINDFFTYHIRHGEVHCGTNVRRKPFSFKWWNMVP

IC50 [1] [nM]	IC50 [2] [nM]	SMILES
11 to 100	11 to 100	CC(Oc1cccc2cc(-c3nc4cc5c(nc4n3C)CCN(C[C@H](N)CF)C5=O)n(CC3CC3)c12)c1cc[nH]n1 (single isomer, unassigned) [Example 49a]
101 to 500	101 to 500	CC(Oc1cccc2cc(-c3nc4cc5c(nc4n3C)CCN(C[C@H](N)CF)C5=O)n(CC3CC3)c12)c1cc[nH]n1 (single isomer, unassigned) [Example 49b]
11 to 100	≤ 10	Cn1c(-c2cc3cccc(OC(F)Cn4ccnc4)c3n2CC2CC2)nc2cc3c(nc21)CCN(C[C@H](N)CF)C3=O (single isomer, unassigned) [Example 74a]
11 to 100	≤ 10	Cn1c(-c2cc3cccc(OC(F)Cn4ccnc4)c3n2CC2CC2)nc2cc3c(nc21)CCN(C[C@H](N)CF)C3=O (single isomer, unassigned) [Example 74b]
11 to 100	≤ 10	Cn1c(-c2cc3cccc(OC(F)Cn4cncc4F)c3n2CC2CC2)nc2cc3c(nc21)CCN(C[C@H](N)CF)C3=O (single isomer, unassigned) [Example 75a]
11 to 100	≤ 10	Cn1c(-c2cc3cccc(OC(F)Cn4cncc4F)c3n2CC2CC2)nc2cc3c(nc21)CCN(C[C@H](N)CF)C3=O (single isomer, unassigned) [Example 75b]
> 1000	> 1000	COCCn1c(-c2nc3cc4c(nc3n2C)CCN(C[C@H](N)CF)C4=O)cc2cccc(OC)c21 [Example 2, (S)-7-(2-amino-3-fluoropropyl)-2-(7-methoxy-1-(2-methoxyethyl)-1H-indol-2-yl)-3-methyl-3,5,6,7-tetrahydro-8H-imidazo[4,5-b][1,6]naphthyridin-8-one]
101 to 500	11 to 100	COc1cccc2cc(-c3nc4cc5c(nc4n3C)CCN(C[C@H](N)CF)C5=O)n(Cc3ccno3)c12 [Example 7, (S)-7-(2-amino-3-fluoropropyl)-2-(1-(isoxazol-5-ylmethyl)-7-methoxy-1H-indol-2-yl)-3-methyl-3,5,6,7-tetrahydro-8H-imidazo[4,5-b][1,6]naphthyridin-8-one]
501 to 1000	501 to 1000	COc1cccc2cc(-c3nc4cc5c(nc4n3C)CCN(C[C@H](N)CF)C5=O)n(Cc3ncco3)c12 [Example 8, (S)-7-(2-amino-3-fluoropropyl)-2-(7-methoxy-1-(oxazol-2-ylmethyl)-1H-indol-2-yl)-3-methyl-3,5,6,7-tetrahydro-8H-imidazo[4,5-b][1,6]naphthyridin-8-one]
101 to 500	101 to 500	COc1cccc2cc(-c3nc4cc5c(nc4n3C)CCN(C[C@H](N)CF)C5=O)n(Cc3ncc(C)o3)c12 [Example 11, (S)-7-(2-amino-3-fluoropropyl)-2-(7-methoxy-1-((5-methyloxazol-2-yl)methyl)-1H-indol-2-yl)-3-methyl-3,5,6,7-tetrahydro-8H-imidazo[4,5-b][1,6]naphthyridin-8-one]
101 to 500	101 to 500	COc1cccc2cc(-c3nc4cc5c(nc4n3C)CCN(C[C@H](N)CF)C5=O)n(Cc3cc(C)no3)c12 [Example 12, (S)-7-(2-amino-3-fluoropropyl)-2-(7-methoxy-1-((3-methylisoxazol-5-yl)methyl)-1H-indol-2-yl)-3-methyl-3,5,6,7-tetrahydro-8H-imidazo[4,5-b][1,6]naphthyridin-8-one]
501 to 1000	11 to 100	COc1cccc2cc(-c3nc4cc5c(nc4n3C)CCN(C[C@H](N)CF)C5=O)n(Cc3nc(C)cs3)c12 [Example 14, (S)-7-(2-amino-3-fluoropropyl)-2-(7-methoxy-1-((4-methylthiazol-2-yl)methyl)-1H-indol-2-yl)-3-methyl-3,5,6,7-tetrahydro-8H-imidazo[4,5-b][1,6]naphthyridin-8-one]
101 to 500	11 to 100	COc1cccc2cc(-c3nc4cc5c(nc4n3C)CCN(C[C@H](N)CF)C5=O)n(CC3(F)CC3)c12 [Example 15, (S)-7-(2-amino-3-fluoropropyl)-2-(1-((1-fluorocyclopropyl)methyl)-7-methoxy-1H-indol-2-yl)-3-methyl-3,5,6,7-tetrahydro-8H-imidazo[4,5-b][1,6]naphthyridin-8-one]
101 to 500	101 to 500	COc1cccc2cc(-c3nc4cc5c(nc4n3C)CCN(C[C@H](N)CF)C5=O)n(CC3OCCO3)c12 [Example 16, (S)-2-(1-((1,3-dioxolan-2-yl)methyl)-7-methoxy-1H-indol-2-yl)-7-(2-amino-3-fluoropropyl)-3-methyl-3,5,6,7-tetrahydro-8H-imidazo[4,5-b][1,6]naphthyridin-8-one]
> 1000	501 to 1000	Cn1c(-c2cc3cccnc3n2CC2CC2)nc2cc3c(nc21)CCN(C[C@H](N)CF)C3=O [Example 19, (S)-7-(2-amino-3-fluoropropyl)-2-(1-(cyclopropylmethyl)-1H-pyrrolo[2,3-b]pyridin-2-yl)-3-methyl-3,5,6,7-tetrahydro-8H-imidazo[4,5-b][1,6]naphthyridin-8-one]
501 to 1000	> 1000	Cn1c(-c2cc3ccccc3n2CC2CC2)nc2cc3c(nc21)CCN(C[C@H](N)CF)C3=O [Example 20, (S)-7-(2-amino-3-fluoropropyl)-2-(1-(cyclopropylmethyl)-1H-indol-2-yl)-3-methyl-3,5,6,7-tetrahydro-8H-imidazo[4,5-b][1,6]naphthyridin-8-one]
101 to 500	101 to 500	COc1cc(F)cc2cc(-c3nc4cc5c(nc4n3C)CCN(C[C@H](N)CF)C5=O)n(Cc3ccno3)c12 [Example 22, (S)-7-(2-amino-3-fluoropropyl)-2-(5-fluoro-1-(isoxazol-5-ylmethyl)-7-methoxy-1H-indol-2-yl)-3-methyl-3,5,6,7-tetrahydro-8H-imidazo[4,5-b][1,6]naphthyridin-8-one]
501 to 1000	–	Cn1c(-c2cc3cccc(OC[C@@H]4CCC(=O)NC4)c3n2CC2CC2)nc2cc3c(nc21)CCN(C[C@H](N)CF)C3=O [Example 37, 7-((S)-2-amino-3-fluoropropyl)-2-(1-(cyclopropylmethyl)-7-(((R)-6-oxopiperidin-3-yl)methoxy)-1H-indol-2-yl)-3-methyl-3,5,6,7-tetrahydro-8H-imidazo[4,5-b][1,6]naphthyridin-8-one]
101 to 500	–	Cn1c(-c2cc3cccc(OC[C@H]4CNC(=O)C4)c3n2CC2CC2)nc2cc3c(nc21)CCN(C[C@H](N)CF)C3=O [Example 60, 7-((S)-2-amino-3-fluoropropyl)-2-(1-(cyclopropylmethyl)-7-(((R)-5-oxopyrrolidin-3-yl)methoxy)-1H-indol-2-yl)-3-methyl-3,5,6,7-tetrahydro-8H-imidazo[4,5-b][1,6]naphthyridin-8-one]

SMILES	IC50 [1] [nM]	IC50 [2] [nM]
CC(Cc1cnco1)Oc1cc(F)cc2cc(-c3nc4cc5c(nc4n3C)CCN(C[C@H](N)CF)C5=O)n(CC3CC3)c12 (single isomer, unassigned) [Example 65a]	101 to 500	≤ 10
COc1cccc2cc(-c3nc4cc5c(nc4n3C)CCN(C[C@H](N)CF)C5=O)n(CC3CC3)c12 [Example 1, (S)-7-(2-amino-3-fluoropropyl)-2-(1-(cyclopropylmethyl)-7-methoxy-1H-indol-2-yl)-3-methyl-3,5,6,7-tetrahydro-8H-imidazo[4,5-b][1,6]naphthyridin-8-one]	501 to 1000	101 to 500
